Results published in US20060111327A1, “Derivatives of triptolide having a high immunosuppressive effect and high water solubility, and uses thereof” (priority 2002, published 2006).
Where “and” joins values, the source holds several entries; their conditions need not be identical. Equal values may be shown once. Read-outs that look alike come from different tables or passages of the source.

Tests used:
[1] = system: cotton ball granulation in rat; design: species or system Wister rats; settings: in vivo
[2] = system: Kunming mice; settings: both, mouse, in vivo, iv
[3] = physchem; settings: water
[4] = in vivo; settings: both, Kunming, mouse
[5] = system: IL-6; format: cell-based, rat
[6] = system: IL-2; format: cell-based, rat
[7] = system: iNOS; format: cell-based, rat
[8] = system: rat adjuvant-induced arthritis; settings: in vivo
[9] = system: rat adjuvant-induced arthritis; design: species or system SD rats; settings: in vivo
[10] = system: transplanted heart (C57BL mouse heart grafted into balb/c mouse); settings: in vivo
[11] = in vivo; cited from earlier work
[12] = Cell membrane permeability (unpublished experimental data); format: in vitro ADME; settings: our unpublished experimental data
[13] = background statement; cited from earlier work

With `C[C@]12CCC(=O)C=C1CC[C@@H]1[C@@H]2[C@@H](O)C[C@@]2(C)[C@H]1CC[C@]2(O)C(=O)CO` [Hydrocordisone, reference compound] as the compound, how does the Inhibition of swelling [1] read?
The Inhibition of swelling was 42.2%.

And the “effect against cotton ball granulation” value [1]?
The value was “significantly decreased weight of cotton ball granulation”.

For `CC(C)[C@]12OP(=O)([O-])O[C@H]1[C@]13O[C@H]1C[C@H]1C4=C(CC[C@]1(C)[C@@]31OC1[C@H]2SC#N)C(=O)OC4.[Na+]` (stereo partly drawn) [WDY1, sodium 12-β-thiocyano triptolide-13-α-14-β-phosphate], which “Death No. of mice” value ([2]; 98 mg/kg) is on record?
Its value is 0.

And the Mortality ([2]; 98 mg/kg)?
The Mortality was 0%.

What about the “Death No. of mice” value ([2]; 109 mg/kg) of the same compound?
Its value is 1.

What about the Mortality ([2]; 109 mg/kg) of the same compound?
Its Mortality is 10%.

And the “Death No. of mice” value ([2]; 122 mg/kg)?
The value was 4.

What about the Mortality ([2]; 122 mg/kg) of the same compound?
Its Mortality is 40%.

And the “Death No. of mice” value ([2]; 135 mg/kg)?
The value was 8.

What about the Mortality ([2]; 135 mg/kg) of the same compound?
Its Mortality is 80%.

And the “Death No. of mice” value ([2]; 150 mg/kg)?
Its value is 9.

And the Mortality ([2]; 150 mg/kg)?
The Mortality was 90%.

What about the solubility [3] of the same compound?
The solubility was > 100 mg/mL.

What about the Inhibition of swelling [1] of the same compound?
The Inhibition of swelling was 45.7% and 59.3% and 46.3%.

And the “effect against cotton ball granulation” value [1]?
The value was “significant effect”.

What about the LD50 ([4]; acute toxicity LD50) of the same compound?
The LD50 was 126 mg/kg.

And the LD50 ([4]; iv, 95% limit of LD50)?
The LD50 was 119 to 133 mg/kg.

What about the LD50 ([4]; iv, LD50) of the same compound?
Its LD50 is 126 mg/kg.

Which solubility [3] does the source give for `CC(C)[C@]12OP(=O)([O-])O[C@H]1[C@]13O[C@H]1C[C@H]1C4=C(CC[C@]1(C)[C@@]31OC1[C@H]2Cl)C(=O)OC4.[Na+]` (stereo partly drawn) [WDY2, sodium 12-β-chlorotriptolide-13-α-14-13-phosphate] here?
Its solubility is > 100 mg/mL.

What does the source list for `CC(C)[C@]12O[C@H]1C1O[C@]13[C@]1(O[C@H]1C[C@H]1C4=C(CC[C@@]13C)C(=O)OC4)[C@@H]2O[PH](=O)[O-].[Na+]` (stereo partly drawn) [WDY4, sodium triptolide-14-β-phosphite]?
solubility [3]: > 100 mg/mL; inhibition of mRNA expression of IL-6 [5]: completely; inhibition of LPS- or PHA-induced IL-2 mRNA expression [6]: completely inhibited; inhibition of mRNA expression of iNOS [7]: completely

Which “effect in the treatment of adjuvant-induced rat arthritis” value [8] does the source give for `CC(C)[C@@]1(O)[C@H](SC#N)C2O[C@]23[C@]2(O[C@H]2C[C@H]2C4=C(CC[C@@]23C)C(=O)OC4)[C@@H]1OC(=O)CCC(=O)O` (stereo partly drawn) [WDY6, 12-β-thiocyano-13-α-hydroxy triptolide-14-β-succinic acid mono-ester] here?
Its value is “significant effect”.

And the “effect on thickness of the contralateral paw (left hind paw)” value [9]?
The value was “significantly decreased”.

What about the Inhibition of swelling [1] of the same compound?
Its Inhibition of swelling is 42.6% and 47.1% and 49.0%.

And the “effect against cotton ball granulation” value [1]?
The value was “significant effect”.

What about the Average survival time [10] of the same compound?
The Average survival time was 12.7 days.

What about the “body weight and appetite of treated mice” value [10] of the same compound?
The value was “did not show a decrease of body weight and their appetites were normal”.

For `CC(C)[C@]12O[C@H]1C1O[C@]13[C@]1(O[C@H]1C[C@H]1C4=C(CC[C@@]13C)C(=O)OC4)[C@@H]2OP(=O)([O-])[O-].[Na+].[Na+]` (stereo partly drawn) [WDY7, disodium triptolide-14-β-phosphate], which “effect in the treatment of adjuvant-induced rat arthritis” value [8] is on record?
The value was “significant effect”.

What about the solubility [3] of the same compound?
Its solubility is > 100 mg/mL.

And the Inhibition of swelling [1]?
The Inhibition of swelling was 41.5% and 55.6% and 56.8%.

What about the “effect against cotton ball granulation” value [1] of the same compound?
Its value is “significant effect”.

And the LD50 ([4]; acute toxicity LD50)?
Its LD50 is 0.8 mg/kg.

And the Average survival time [10]?
The Average survival time was 13.8 days.

And the “anti-rejection effect” value [10]?
Its value is “significant anti-rejection effect”.

What about the “body weight and appetite of treated mice” value [10] of the same compound?
Its value is “did not show a decrease of body weight and their appetites were normal”.

For `CC(C)[C@]12O[C@H]1[C@@H]1O[C@]13[C@]1(O[C@H]1C[C@H]1C4=C(CC[C@@]13C)C(=O)OC4)[C@@H]2O` [triptolide], which LD50 [11] is on record?
Its LD50 is 0.85 mg/kg body weight.

And the “cell membrane permeability” value [12]?
Its value is “Low cell membrane permeability”.

What about the “water solubility” value [13] of the same compound?
The value was “Low water solubility”.
